Results published in patent EP4782453A1 (Beyang Therapeutics Co., Ltd., priority 2023, dated 2025).

Columns and labels:
MEIS1 gene expression = assay: Inhibition of MEIS1 gene expression in human tumor cells (qRT-PCR), MV-4-11; format: cell-based; details: MV4-11, MV-4-11 (carrying MLL-AF4), 48 hours of incubation, relative MEIS1 gene expression vs GAPDH, read-out: MV-4-11 MEISI EC50
Source text: Experimental Example 3: Evaluation of Inhibitory Activity of Compounds Against MEISI Gene Expression in Human Tumor Cells
The effect of test samples on MEIS1 gene expression in vitro cultured human leukemia cells MV-4-11 (carrying MLL-AF4), MOLM-13 (carrying MLL-AF9), and OCI-AML3 (carrying NPM1c) was studied.
• Human acute lymphoblastic leukemia cells MV-4-11, purchased from American Type Culture Collection, Catalog Number: CRL-9591; • Human acute myeloid leukemia cells MOLM-13, purchased from COBIOER BIOSCIENCES CO., LTD, Catalog Number: CBP60678; • Human acute myeloid leukemia cells OCI-AML3, purchased from COBIOER BIOSCIENCES CO., LTD, Catalog Number: CBP60817; • MEIS1 Primer/Probe, purchased from IDT, Catalog Number: 40831613; and • GAPDH Primer/Probe, purchased from IDT, Catalog Number: 22214836.
MV-4-11 cells were cultured in an IMDM medium containing 10% fetal bovine serum, or MOLM-13 and OCI-AML3 cells were cultured in an RPMI-1640 medium containing 20% fetal bovine serum, each supplemented with 100 U·mL^-1 penicillin and 100 µg·mL^-1 streptomycin. These cells were cultured at 37°C with 5% CO2. The suspensions of individual cell lines were prepared in their respective media and seeded into 48-well plates at a density of 100,000 cells/well. On the day of the experiment, a compound stock solution was diluted in a 6-fold gradient using DMSO. Each gradient-diluted stock solution was then further diluted 250-fold with a complete medium to prepare a series of working solutions at different concentrations. Next, 250 µL of working solution (containing the complete medium with a 2-fold serial concentration of the test compound or a positive control compound, or containing a control complete medium) was added to each well. After 48 hours of incubation, cells from the 48-well plate were collected into 1 mL centrifuge tubes, centrifuged at 1000 rpm for 5 minutes, and the complete medium was removed. Cells were washed twice with 1 mL PBS and centrifuged to remove PBS. Total RNA was extracted using the RNeasy Mini Kit (250) (QIAGEN, 74106). The threshold cycle (Ct) value for gene expression was determined using the HiScript II U+ One Step qRT-PCR Probe Kit (Vazyme) (Vazyme, Q223-01), with 3 replicates per sample. The prepared reaction mixture was placed in an ABI 7500 real-time PCR instrument, and the reaction proceeded following the procedures below. [formula]
Next, for the relative MEIS1 gene expression, the concentration (EC50) that inhibits 50% of relative MEIS1 gene expression was calculated using GraphPad Prism 8 software.

[1] = tested on: MOLM-13 (carrying MLL-AF9); assay: Inhibition of proliferation of human tumor cells (Alamar Blue, 7 days), MOLM-13; format: cell-based; details: Homo sapiens, 168 h, MOLM-13 cells (carrying MLL-AF9), method calls the value GI50
Summary of the method: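 Cells seeded at 4,000/well (MV-4-11, MOLM-13) or 3,000/well (KG-1a) in serum-supplemented IMDM or RPMI-1640, 37°C, 5% CO2, then exposed to 3- or 4-fold compound dilutions in duplicate for 7 days. Alamar Blue fluorescence read; GI50 derived against Day 7 0.1% DMSO (high) and Day 0 (low) controls.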

EC50 (MEIS1 gene expression) | IC50 [1] | Compound
16 nM | 10 nM | CCN(C(=O)c1cc(F)ccc1-c1cc(C2CN(C[C@H]3CC[C@H](NS(=O)(=O)CC)CC3)C2)cn2c(C)nc(F)c12)C(C)C [Example 137]
61 nM | 27 nM | CC[C@@H](C1CCN(C(C)=O)CC1)N1CC(c2cc(-c3ccc(F)cc3C(=O)N3CCOC[C@H]3C)c3c(F)nc(C)n3c2)C1 [Example 280-1, 1-{4-[(1S)-1-[3-(1-fluoro-8-{4-fluoro-2-[(3R)-3-methylmorpholin-4-carbonyl]phenyl}-3-methylimidazo[1,5-a]pyridin-6-yl)azacyclobutan-1-yl]propyl]piperidin-1-yl}ethan-1-one]
– | 6.8 nM | CCN(C(=O)c1cc(F)ccc1-c1cc(C2CN([C@@H](C)C3CCN(C(=O)CO)CC3)C2)cn2c(C)nc(F)c12)C(C)C [Example 284-2]
32 nM | 36 nM | Cc1nc(F)c2c(-c3ccc(F)cc3C(=O)N3CCOC[C@H]3C)cc(C3CN([C@H](CO[C@@H]4CCCN(C)C4)C(C)C)C3)cn12 [Example 297-1, (3R)-4-[5-fluoro-2-(1-fluoro-3-methyl-6-{1-[(2S)-3-methyl-1-{[(3R)-1-methylpiperidin-3-yl]oxy}butan-2-yl]azacyclobutan-3-yl}imidazo[1,5-a]pyridin-8yl)benzoyl]-3-methylmorpholine]
5 nM | 6.2 nM | CCN(C(=O)c1cc(F)ccc1-c1cc(C2CN([C@H](CCCN3CCN(C)CC3)C(C)C)C2)cn2c(C)ncc12)C(C)C [Example 310-2, N-ethyl-5-fluoro-2-(3-methyl-6-{1-[(3R)-2-methyl-6-(4-methylpiperazin-1-yl)hexan-3-yl]azacyclobutan-3-yl}imidazo[1,5-a]pyridin-8-yl)-N-(isopropyl)benzamide]
19 nM | 26 nM | CCN(C(=O)c1cc(F)ccc1-c1cc(C2CN([C@H](CCCN3CCN(C(C)=O)CC3)C(C)C)C2)cn2c(C)ncc12)C(C)C [Example 311-2, 2-(6-{1-[(3R)-6-(4-acetylpiperazin-1-yl)-2-methylhexan-3-yl]azacyclobutan-3-yl}-3-methylimidazo[1,5-a]pyridin-8-yl)-N-ethyl-5-fluoro-N-(isopropyl)benzamide]
5.7 nM | 5.3 nM | CCN(C(=O)c1cc(F)ccc1-c1cc(C2CN([C@H](CCCN3CCN(C)CC3)C(C)C)C2)cn2c(C)nc(F)c12)C(C)C [Example 312-2]
13 nM | 7.3 nM | Cc1nc(F)c2c(-c3ccc(F)cc3C(=O)N3CCOC[C@H]3C)cc(C3CN([C@H](CCCN4CCC(F)CC4)C(C)C)C3)cn12 [Example 314]
– | 17 nM | Cc1nc(F)c2c(-c3ccc(F)cc3C(=O)N3CCOC[C@H]3C)cc(C3CN([C@H](CO[C@H]4CCCN(C)C4)C(C)C)C3)cn12 [Example 321-2, (3R)-4-[5-fluoro-2-(1-fluoro-3-methyl-6-{1-[(2S)-3-methyl-1-{[(3S)-1-methylpiperidin-3-yl]oxy}butan-2-yl]azacyclobutan-3-yl}imidazo[1,5-a]pyridin-8yl)benzoyl]-3-methylmorpholine]
8.6 nM | 15 nM | Cc1ncc2c(-c3ccc(F)cc3C(=O)N3CCOC[C@H]3C)cc(C3CN([C@H](CCCN4CCN(C)CC4)C(C)C)C3)cn12 [Example 323-2, (3R)-4-[5-fluoro-2-(3-methyl-6-{1-[(3R)-2-methyl-6-(4-methylpiperazin-1-yl)hexan-3-yl]azacyclobutan-3-yl}imidazo[1,5-a]pyridin-8-yl)benzoyl]-3-methylmorpholine]
7.3 nM | 9.2 nM | CCN1CCN(CCC[C@H](C(C)C)N2CC(c3cc(-c4ccc(F)cc4C(=O)N4CCOC[C@H]4C)c4cnc(C)n4c3)C2)CC1 [Example 324-2]

Compound | EC50 (MEIS1 gene expression) | IC50 [1]
CCN(C(=O)c1cc(F)ccc1-c1cc(C2CN([C@H](CCCN3C4COCC3C4)C(C)C)C2)cn2c(C)ncc12)C(C)C [Example 423] | 1.3 nM | 2.7 nM
